Counter-ions that a name gives are not always drawn.
Tested on: progranulin (PGRN)
Experiment: progranulin induction cellular assay (PGRN assay), ELISA-based readout
Details: PGRN assay as described: mouse primary microglia, primary cortical neurons and BV-2 cell lines; secreted mouse PGRN in medium by ELISA; cell type for Table B not specified
Method: Cellular Assays: To measure the efficacy of compounds, a progranulin induction cellular assay in mouse primary microglia (pMG), primary cortical neurons, and BV-2 cell lines is used. BV-2 cells are split the day before plating into a 96 well plate format at approximately 80%. Cells should be plated the day before and allowed for 1 hour attachment period and for 16 hour incubation. Levels of progranulin secreted into the cell culture medium or retained in the cell lysate can be quantified using an ELISA-based readout and measurement of secreted mouse PGRN in the medium was assessed by the methodology published by Ghidoni et al. 2012. Standard ELISA kits to measure PGRN are available from vendors such as Adipogen, R&D, and Biovendor.
Table B below presents the results of a PGRN assay as described above.

| Structure (SMILES) | EC50 |
| --- | --- |
| N[C@H]1CC[C@H]1OC(=O)N1CCc2ccccc2[C@@H]1c1ccc(F)cc1 (single isomer, unassigned) [Compound 4037] | > 10000 nM |
| N[C@@H]1CC[C@@H]1OC(=O)N1CCc2ccccc2[C@@H]1c1ccc(F)cc1 (single isomer, unassigned) [Compound 4038] | 1690 nM |
| N[C@@H]1CC[C@H]1OC(=O)N1CCc2ccccc2[C@@H]1c1ccc(F)cc1 (single isomer, unassigned) [Compound 4039, hydrochloride] | 1210 nM |
| N[C@H]1CCC1OC(=O)N1CCc2ccccc2[C@@H]1c1ccc(F)cc1 (single isomer, unassigned) [Compound 4040, hydrochloride] | 2330 nM |
| NC12CC(NC(=O)N3CCc4ccccc4C3c3ccc(F)cc3F)(C1)C2 (single isomer, unassigned) [Compound 4137, N-(3-aminobicyclo[1.1.1]pentan-1-yl)-1-(2,4-difluorophenyl)-3,4-dihydroisoquinoline-2(1H)-carboxamide] | 91 nM |
| NC12CC(NC(=O)N3CCc4ccccc4C3c3ccc(F)cc3F)(C1)C2 (single isomer, unassigned) [Compound 4138, N-(3-aminobicyclo[1.1.1]pentan-1-yl)-1-(2,4-difluorophenyl)-3,4-dihydroisoquinoline-2(1H)-carboxamide] | 5590 nM |
| N[C@@H]1C[C@H](NC(=O)N2CCc3ccccc3[C@@H]2c2ccc(F)cc2)CC(F)(F)C1 (single isomer, unassigned) [Compound 4141] | 201 nM |
| N[C@H]1C[C@@H](NC(=O)N2CCc3ccccc3[C@@H]2c2ccc(F)cc2)CC(F)(F)C1 (single isomer, unassigned) [Compound 4142] | 810 nM |
| NC[C@]1(O)C[C@@H](C(=O)N2CCc3ccccc3[C@@H]2c2ccc(F)cc2)C1 (single isomer, unassigned) [Compound 4153] | 130 nM |
| NC1CCC1COC(=O)N1CCc2ccccc2[C@@H]1c1ccc(F)cc1 (stereo in doubt) [Compound 4062, ((1R,2R)-2-aminocyclobutyl)methyl (S)-1-(4-fluorophenyl)-3,4-dihydroisoquinoline-2(1H)-carboxylate] | 334 nM |
| NC12CC(OC(=O)N3CCc4ccccc4[C@@H]3c3ccc(F)cc3)(C1)C2 [Compound 4001, 3-Aminobicyclo[1.1.1]pentan-1-yl (S)-1-(4-fluorophenyl)-3,4-dihydroisoquinoline-2(1H)-carboxylate] | 440 nM |
| NC12CC(NC(=O)N3CCc4ccccc4[C@@H]3c3ccc(F)cc3)(C1)C2 [Compound 4002, (S)—N-(3-aminobicyclo[1.1.1]pentan-1-yl)-1-(4-fluorophenyl)-3,4-dihydroisoquinoline-2(1H)-carboxamide] | 266 nM |
| NC12CC(NC(=O)N3CCc4ccccc4[C@H]3c3ccc(F)cc3)(C1)C2 [Compound 4003, (R)—N-(3-aminobicyclo[1.1.1]pentan-1-yl)-1-(4-fluorophenyl)-3,4-dihydroisoquinoline-2(1H)-carboxamide] | 720 nM |
| CNC12CC(NC(=O)N3CCc4ccccc4[C@@H]3c3ccc(F)cc3)(C1)C2 [Compound 4004, (S)-1-(4-fluorophenyl)-N-(3-(methylamino)bicyclo[1.1.1]pentan-1-yl)-3,4-dihydroisoquinoline-2(1H)-carboxamide] | 225 nM |
| C#CCNC12CC(NC(=O)N3CCc4ccccc4[C@@H]3c3ccc(F)cc3)(C1)C2 [Compound 4005, (S)-1-(4-fluorophenyl)-N-(3-(prop-2-yn-1-ylamino)bicyclo[1.1.1]pentan-1-yl)-3,4-dihydroisoquinoline-2(1H)-carboxamide 2,2,2-trifluoroacetate] | > 10000 nM |
| C#CCNC12CC(N(CC#C)C(=O)N3CCc4ccccc4[C@@H]3c3ccc(F)cc3)(C1)C2 [Compound 4006, (S)-1-(4-fluorophenyl)-N-(prop-2-yn-1-yl)-N-(3-(prop-2-yn-1-ylamino)bicyclo[1.1.1]pentan-1-yl)-3,4-dihydroisoquinoline-2(1H)-carboxamide] | > 10000 nM |
| CS(=O)(=O)CCNC12CC(NC(=O)N3CCc4ccccc4[C@@H]3c3ccc(F)cc3)(C1)C2 [Compound 4007, (S)-1-(4-fluorophenyl)-N-(3-((2-(methylsulfonyl)ethyl)amino)bicyclo[1.1.1]pentan-1-yl)-3,4-dihydroisoquinoline-2(1H)-carboxamide 2,2,2-trifluoroacetate] | > 10000 nM |
| CS(=O)(=O)CCNC12CC(N(CCS(C)(=O)=O)C(=O)N3CCc4ccccc4[C@@H]3c3ccc(F)cc3)(C1)C2 [Compound 4008, (S)-1-(4-fluorophenyl)-N-(2-(methylsulfonyl)ethyl)-N-(3-((2-(methylsulfonyl)ethyl)amino)bicyclo[1.1.1]pentan-1-yl)-3,4-dihydroisoquinoline-2(1H)-carboxamide] | > 10000 nM |
| CNC12CC(N(C)C(=O)N3CCc4ccccc4[C@@H]3c3ccc(F)cc3)(C1)C2 [Compound 4009, (S)-1-(4-fluorophenyl)-N-methyl-N-(3-(methylamino)bicyclo[1.1.1]pentan-1-yl)-3,4-dihydroisoquinoline-2(1H)-carboxamide] | > 10000 nM |
| CN(C(=O)N1CCc2ccccc2[C@@H]1c1ccc(F)cc1)C12CC(N)(C1)C2 [Compound 4010, (S)—N-(3-aminobicyclo[1.1.1]pentan-1-yl)-1-(4-fluorophenyl)-N-methyl-3,4-dihydroisoquinoline-2(1H)-carboxamide] | > 10000 nM |
| C#CCOCCNC12CC(NC(=O)N3CCc4ccccc4[C@@H]3c3ccc(F)cc3)(C1)C2 [Compound 4011, (S)-1-(4-fluorophenyl)-N-(3-((2-(prop-2-yn-1-yloxy)ethyl)amino)bicyclo[1.1.1]pentan-1-yl)-3,4-dihydroisoquinoline-2(1H)-carboxamide] | 5160 nM |
| O=C(NC12CC(N3CCCC3)(C1)C2)N1CCc2ccccc2[C@@H]1c1ccc(F)cc1 [Compound 4012, (S)-1-(4-fluorophenyl)-N-(3-(pyrrolidin-1-yl)bicyclo[1.1.1]pentan-1-yl)-3,4-dihydroisoquinoline-2(1H)-carboxamide] | 7810 nM |
| O=C(NC12CC(N3CCOCC3)(C1)C2)N1CCc2ccccc2[C@@H]1c1ccc(F)cc1 [Compound 4013, (S)-1-(4-fluorophenyl)-N-(3-morpholinobicyclo[1.1.1]pentan-1-yl)-3,4-dihydroisoquinoline-2(1H)-carboxamide] | > 10000 nM |
| O=C(OC12CC(NCC(F)(F)F)(C1)C2)N1CCc2ccccc2[C@@H]1c1ccc(F)cc1 [Compound 4014, 3-((2,2,2-trifluoroethyl)amino)bicyclo[1.1.1]pentan-1-yl (S)-1-(4-fluorophenyl)-3,4-dihydroisoquinoline-2(1H)-carboxylate] | > 10000 nM |
| CC(=O)NC12CC(OC(=O)N3CCc4ccccc4[C@@H]3c3ccc(F)cc3)(C1)C2 [Compound 4015, 3-Acetamidobicyclo[1.1.1]pentan-1-yl (S)-1-(4-fluorophenyl)-3,4-dihydroisoquinoline-2(1H)-carboxylate] | > 10000 nM |
| CC(=O)NC12CC(NC(=O)N3CCc4ccccc4[C@@H]3c3ccc(F)cc3)(C1)C2 [Compound 4016, (S)—N-(3-acetamidobicyclo[1.1.1]pentan-1-yl)-1-(4-fluorophenyl)-3,4-dihydroisoquinoline-2(1H)-carboxamide] | > 10000 nM |
